The text below walks through data of the Biogen ADME set (Fang et al. 2023).

In brackets after ≈: the same amount, converted by molar mass. Bounds are passed on as bounds.

The conditions of the data set: for aqueous solubility: pH 6.8.

`COc1ccc(Nc2nc(Cl)cc(Cl)n2)cc1` displayed an intrinsic clearance, human liver microsomes of 188 mL/min/kg and an intrinsic clearance, rat liver microsomes of 170 mL/min/kg.
For `O=C(NC[C@H]1COCc2nc3ccccc3n21)c1ccncc1`, the MDR1-MDCK efflux ratio was determined as 23.9; the intrinsic clearance, human liver microsomes was determined as 18.9 mL/min/kg; the intrinsic clearance, rat liver microsomes turned out to be 131 mL/min/kg; the aqueous solubility is 52.1 µg/mL (≈ 169 µM).
In the same order, the values of `Cc1cccn(Cc2ccccc2F)c1=O` are 0.634, ≤ 4.74 mL/min/kg, 60.7 mL/min/kg and 28.2 µg/mL (≈ 130 µM).
The like results for `Cc1ccc(-c2noc3nc(C)cc(C(=O)O)c23)cc1` were, in that order, 2.93, ≤ 4.74 mL/min/kg, ≤ 10.7 mL/min/kg and 74.3 µg/mL (≈ 277 µM).
As for `CSCC(=O)N1CCc2[nH]nc(-c3cccc(F)c3)c2C1`, the intrinsic clearance, human liver microsomes is 57 mL/min/kg; the intrinsic clearance, rat liver microsomes turned out to be 960 mL/min/kg; the aqueous solubility is 49.5 µg/mL (≈ 162 µM).
As for `OCC1CN(c2nc3cc(F)ccc3o2)C1`, the MDR1-MDCK efflux ratio is 0.704; the intrinsic clearance, human liver microsomes is ≤ 4.74 mL/min/kg; the intrinsic clearance, rat liver microsomes was 17.2 mL/min/kg.
Regarding `Cc1cc(-c2cnn(CCNC(=O)c3sc(C)nc3C)c2C2CC2)on1`, the MDR1-MDCK efflux ratio is 5.26; the intrinsic clearance, human liver microsomes was found to be 23.8 mL/min/kg; the intrinsic clearance, rat liver microsomes came out at 123 mL/min/kg; the aqueous solubility turned out to be 67.1 µg/mL (≈ 181 µM).
Take `CCN1CCC(CCNc2ncc(C)c(N(C)C)n2)CC1`: the MDR1-MDCK efflux ratio stood at 11.5; the intrinsic clearance, human liver microsomes is ≤ 4.74 mL/min/kg; the intrinsic clearance, rat liver microsomes came to 323 mL/min/kg.
As for `Cn1ccc2c(C(=O)Nc3ncn(Cc4cccnc4)n3)cccc21`, the MDR1-MDCK efflux ratio was determined as 54.9; the intrinsic clearance, human liver microsomes is ≤ 4.74 mL/min/kg; the intrinsic clearance, rat liver microsomes stood at 30.9 mL/min/kg; the aqueous solubility was 42.5 µg/mL (≈ 128 µM).
The like results for `Cn1cc(C#N)cc1-c1nc(C2CC2)nn1CCc1ccccc1` were, in that order, 0.932, 184 mL/min/kg, 1870 mL/min/kg and 49.2 µg/mL (≈ 155 µM).
Turning to `Cc1cc(C)c(NC(=O)Cn2nnn(-c3cccs3)c2=O)c(C)c1`, the MDR1-MDCK efflux ratio came to 0.738 and the aqueous solubility amounted to 0.77 µg/mL (≈ 2.24 µM).
For the compound `Cc1ccc(-n2c(S)nnc2-c2ccc(O)cc2)c(C)c1`, the MDR1-MDCK efflux ratio worked out at 34.6; the intrinsic clearance, human liver microsomes came out at 10.1 mL/min/kg; the intrinsic clearance, rat liver microsomes came to 129 mL/min/kg; the aqueous solubility came out at 28.9 µg/mL (≈ 97.3 µM).
The like results for `Cc1cnc(Cl)nc1-c1ccc(N(Cc2ccc(CNC(=O)C(F)F)cc2)C(=O)c2ccc(O)cc2O)cc1` were, in that order, 54.7, 41.3 mL/min/kg, 84.6 mL/min/kg and 27.6 µg/mL (≈ 49.8 µM).
In turn, `c1cn2cc(-c3ccc4cn[nH]c4c3)nc(Nc3ccc(N4CCOCC4)cc3)c2n1` yielded an aqueous solubility of 0.1 µg/mL (≈ 0.243 µM).
`O=C(NC1=NS(=O)(=O)c2ccccc21)c1cc(-c2ccc(F)cc2)no1`: the MDR1-MDCK efflux ratio was 2.56; the intrinsic clearance, human liver microsomes worked out at 90.3 mL/min/kg; the intrinsic clearance, rat liver microsomes is ≤ 10.7 mL/min/kg; the aqueous solubility worked out at 31.8 µg/mL (≈ 85.5 µM).
For `Cc1ccc2[nH]c(CNC(=O)c3ncoc3C)nc2c1C`, the MDR1-MDCK efflux ratio worked out at 2.39; the intrinsic clearance, human liver microsomes is 13.6 mL/min/kg; the intrinsic clearance, rat liver microsomes came out at 244 mL/min/kg.
Take `CC(=O)NCC1CCN(C(=O)c2cncn2-c2ccc(F)cc2)CC1`: the MDR1-MDCK efflux ratio amounted to 59.5; the intrinsic clearance, human liver microsomes is ≤ 4.74 mL/min/kg; the intrinsic clearance, rat liver microsomes is 29.3 mL/min/kg; the aqueous solubility amounted to 46.3 µg/mL (≈ 134 µM).
In the case of `Cc1nnnn1CCCc1ccccc1`, the aqueous solubility was 5.67 µg/mL (≈ 28 µM).
For `CCC(=O)NCC[C@@H]1CCc2ccc3c(c21)CCO3`, the MDR1-MDCK efflux ratio turned out to be 0.867; the intrinsic clearance, human liver microsomes was found to be 26.4 mL/min/kg; the intrinsic clearance, rat liver microsomes worked out at 299 mL/min/kg.
Take `COCc1nc(-c2cc(F)ccc2F)c(C)s1`: the MDR1-MDCK efflux ratio stood at 0.684; the intrinsic clearance, human liver microsomes is 133 mL/min/kg; the intrinsic clearance, rat liver microsomes is 425 mL/min/kg; the aqueous solubility came out at 3.6 µg/mL (≈ 14.1 µM).
The like results for `O=C1CCCc2c1[nH]c1cc(-n3ccnc3-c3ccncc3)ccc21` were, in that order, 14.5, 26.7 mL/min/kg, 187 mL/min/kg and 6.53 µg/mL (≈ 19.9 µM).
The like results for `CCCCCCNc1ncnc2[nH]ccc12` were, in that order, 0.498, 70.9 mL/min/kg, 574 mL/min/kg and 18.6 µg/mL (≈ 85.1 µM).
For the compound `CSc1ncccc1C(=O)Nc1ccc(-c2nnc(C)[nH]2)cc1`, the MDR1-MDCK efflux ratio came to 6.96; the intrinsic clearance, human liver microsomes is ≤ 4.74 mL/min/kg; the intrinsic clearance, rat liver microsomes turned out to be 44.1 mL/min/kg.
For `Cc1cn[nH]c1C1(C)CCN(Cc2cnn(C)c2)CC1`, the MDR1-MDCK efflux ratio was found to be 22.6; the intrinsic clearance, human liver microsomes is ≤ 4.74 mL/min/kg; the intrinsic clearance, rat liver microsomes stood at 79.1 mL/min/kg; the aqueous solubility worked out at 28.4 µg/mL (≈ 104 µM).
`N#Cc1ccc2nc([C@H]3CCN(C4CCC4)C3)[nH]c2c1`: the MDR1-MDCK efflux ratio was 4.41; the intrinsic clearance, human liver microsomes came out at 7.26 mL/min/kg; the intrinsic clearance, rat liver microsomes was 68.4 mL/min/kg; the aqueous solubility is 50.2 µg/mL (≈ 188 µM).
For `Cc1nn(-c2ccc(F)cc2)c2ncc(C(=O)Nc3nc(C4CC4)cs3)cc12`, the intrinsic clearance, human liver microsomes stood at 5.68 mL/min/kg; the intrinsic clearance, rat liver microsomes is 32.4 mL/min/kg; the aqueous solubility was 5.35 µg/mL (≈ 13.6 µM).
Turning to `Cc1ccc(C(=O)Nc2ccccc2-c2ccccc2)o1`, the MDR1-MDCK efflux ratio was found to be 0.465; the intrinsic clearance, human liver microsomes came to 257 mL/min/kg; the intrinsic clearance, rat liver microsomes worked out at 503 mL/min/kg; the aqueous solubility came out at 35.5 µg/mL (≈ 128 µM).
On to `Cc1cccc(Oc2cc(CN)ccn2)c1C`, for which the MDR1-MDCK efflux ratio came out at 0.443; the intrinsic clearance, human liver microsomes is ≤ 4.74 mL/min/kg; the intrinsic clearance, rat liver microsomes is 527 mL/min/kg; the aqueous solubility worked out at 30.1 µg/mL (≈ 132 µM).
For `CN(Cc1cnc2ccccc2n1)S(=O)(=O)N1CCCCCC1`, the MDR1-MDCK efflux ratio was 0.62; the intrinsic clearance, human liver microsomes was found to be 230 mL/min/kg; the intrinsic clearance, rat liver microsomes is 5760 mL/min/kg.
`COc1cccc2c1Oc1nc(-c3ccccc3)[nH]c(=S)c1C2` returned an aqueous solubility of 0.35 µg/mL (≈ 1.09 µM).
Take `O=C(C(c1ccccc1)c1ccccc1)N1CCOCC(Cc2ccc3cnccc3c2)C1` (configuration not stated): the MDR1-MDCK efflux ratio worked out at 1.97; the intrinsic clearance, human liver microsomes is 404 mL/min/kg; the intrinsic clearance, rat liver microsomes stood at 653 mL/min/kg; the aqueous solubility was found to be 35.3 µg/mL (≈ 80.9 µM).
In the same order, the values of `O=C(NC[C@@H]1CCN(c2ccccc2)C1)N1CCc2ccccc2C1` are 0.706, 170 mL/min/kg, 2160 mL/min/kg and 11.9 µg/mL (≈ 35.5 µM).
On to `O=C(CCc1cn[nH]c1)NCCCn1cc(Cl)cn1`, for which the MDR1-MDCK efflux ratio worked out at 18.1; the intrinsic clearance, human liver microsomes was ≤ 4.74 mL/min/kg; the intrinsic clearance, rat liver microsomes is 27.9 mL/min/kg.
In turn, `Nc1ccccc1-c1nc(C2CCCCCC2)no1` displayed an intrinsic clearance, human liver microsomes of 47.7 mL/min/kg and an intrinsic clearance, rat liver microsomes of 1310 mL/min/kg.
Take `CC(C)CNc1nnc(SCc2ccncc2)s1`: the MDR1-MDCK efflux ratio stood at 1.03; the intrinsic clearance, human liver microsomes came out at 30.9 mL/min/kg; the intrinsic clearance, rat liver microsomes is 631 mL/min/kg; the aqueous solubility worked out at 48 µg/mL (≈ 171 µM).
Turning to `C=CC[C@]1(O)CC[C@H]2[C@@H]3CCC4=CC(=O)CCC4=C3C=C[C@@]21C`, the MDR1-MDCK efflux ratio was determined as 0.761; the intrinsic clearance, human liver microsomes turned out to be 58.2 mL/min/kg; the intrinsic clearance, rat liver microsomes turned out to be 592 mL/min/kg.
The like results for `Cc1cc(C(=O)N(C)CCCC2CCCC2)cc(C)n1` were, in that order, 0.782, 63.9 mL/min/kg and 5650 mL/min/kg.
On to `Cc1ccc(C)c(OCC(=O)N2CCC(C(=O)Nc3ccccc3)CC2)c1`, for which the MDR1-MDCK efflux ratio is 2.86; the intrinsic clearance, human liver microsomes was found to be 302 mL/min/kg; the intrinsic clearance, rat liver microsomes came out at 1390 mL/min/kg; the aqueous solubility is 3.37 µg/mL (≈ 9.2 µM).
`CN1CCc2ccc(C(=O)NCCC(=O)Nc3cccnc3)cc21`: the MDR1-MDCK efflux ratio was 43.4; the intrinsic clearance, human liver microsomes came to 6.19 mL/min/kg; the intrinsic clearance, rat liver microsomes came to 86.6 mL/min/kg.
Take `O=[N+]([O-])c1ccc(S(=O)(=O)Nc2cccc(-c3nc4ccccc4s3)c2)cc1`: the intrinsic clearance, human liver microsomes is 267 mL/min/kg and the intrinsic clearance, rat liver microsomes amounted to 512 mL/min/kg.
For the compound `O=c1c(CO)cc2cc3c(cc2n1Cc1ccccn1)CCC3`, the MDR1-MDCK efflux ratio came out at 1.39; the intrinsic clearance, human liver microsomes is 12.6 mL/min/kg; the intrinsic clearance, rat liver microsomes was 1170 mL/min/kg.
Consider `O=C(NCc1cccc(O)c1)Nc1nc(-c2ccncc2)cs1`, for which the intrinsic clearance, human liver microsomes worked out at 97.6 mL/min/kg and the intrinsic clearance, rat liver microsomes stood at 246 mL/min/kg.
`CC(C(=O)N1CCc2sccc2C1)N1CCCN(c2ccccc2C#N)CC1` (configuration not stated): the MDR1-MDCK efflux ratio is 0.871; the intrinsic clearance, human liver microsomes amounted to 2130 mL/min/kg; the intrinsic clearance, rat liver microsomes amounted to 4230 mL/min/kg; the aqueous solubility was 25.6 µg/mL (≈ 64.9 µM).
As to `Cc1cc(C(=O)NCCC2=CSC3=NCCCN23)c2cccc(C)c2n1`, the MDR1-MDCK efflux ratio was found to be 8.31; the intrinsic clearance, human liver microsomes is ≤ 4.74 mL/min/kg; the intrinsic clearance, rat liver microsomes worked out at 291 mL/min/kg; the aqueous solubility turned out to be 46.1 µg/mL (≈ 126 µM).
The like results for `O=c1cc(CN2CCCCc3ccccc32)[nH]c2ccnn12` were, in that order, 6.78, 34.2 mL/min/kg, 481 mL/min/kg and 14.3 µg/mL (≈ 48.5 µM).
As for `CNc1ncc(-c2nc(C3(c4ccccc4)CC3)nn2C(C)(C)C)cn1`, the MDR1-MDCK efflux ratio amounted to 0.995; the intrinsic clearance, human liver microsomes was 61.5 mL/min/kg; the intrinsic clearance, rat liver microsomes was 878 mL/min/kg; the aqueous solubility was 3.82 µg/mL (≈ 11 µM).

The term aqueous solubility denotes the concentration that dissolves in the medium under given conditions.
